# Data: patent publication US4760136A, “Chartreusin derivatives and salts thereof” (Ishihara Sangyo Kaisha, Ltd., priority 1984, dated 1988)
# Structures can show the parent of a compound that is named as a salt.
# Columns and labels:
# P-388 leukemia cells = test: Antitumor activity: P-388 leukemia cells inoculated intraperitoneally, drug administered intravenously, BDF1 mice; format: in vivo; settings: Mus musculus, P388, iv, BDF1 mice, P-388 i.p., read-out: T/C (%) of MST; for response vs control in vivo at 40 mg/kg: dose c: 40 mg/kg × 3, i.v. on days 1, 5 and 9; for response vs control in vivo at 80 mg/kg: dose f: 80 mg/kg × 3, i.v. on days 1, 5 and 9; for response vs control in vivo at 20 mg/kg: dose b: 20 mg/kg × 3, i.v. on days 1, 5 and 9; for response vs control in vivo at 60 mg/kg: dose e: 60 mg/kg × 3, i.v. on days 1, 5 and 9; for response vs control in vivo at 10 mg/kg: dose a: 10 mg/kg × 3, i.v. on days 1, 5 and 9
# Procedure, shortened: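 Drug dosing was intravenous on the first, fifth and ninth days after intraperitoneal inoculation of P-388 leukemia cells (1×10^6 per mouse) into BDF1 mice. Vehicles were physiological saline alone, or saline with small amounts of sodium carboxymethyl cellulose or Tween-80.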
# [1] = Acute toxicity, intravenous (once), ddY mice; format: in vivo; settings: mouse, in vivo, iv, formulated per Preparation Example
# Description: In Table 7 are shown acute toxicity values (LD50, mg/kg) in ddY mice in the case of intravenously administering (once) each of the compounds of this invention in the form of preparations shown in the Preparation Examples shown in Table 7.
SMILES,response vs control in vivo at 40 mg/kg (P-388 leukemia cells) [%],response vs control in vivo at 80 mg/kg (P-388 leukemia cells) [%],LD50 [1] [mg/kg],response vs control in vivo at 20 mg/kg (P-388 leukemia cells) [%],response vs control in vivo at 60 mg/kg (P-388 leukemia cells) [%],response vs control in vivo at 10 mg/kg (P-388 leukemia cells) [%]
CO[C@H]1[C@@H](O)[C@@H](C)O[C@H](O[C@H]2[C@H](Oc3cccc4c(OC(=O)c5ccccc5Cl)c5c(=O)oc6ccc(C)c7c(=O)oc(c34)c5c67)O[C@H](C)[C@@H]3OC(c4cccc([N+](=O)[O-])c4)O[C@@H]32)[C@@H]1O (stereo partly shown) [Compound No. 189],146,214,≥ 80,–,–,–
CO[C@H]1[C@@H](O)[C@@H](C)O[C@H](O[C@H]2[C@H](Oc3cccc4c(OC(=O)C5CC5C)c5c(=O)oc6ccc(C)c7c(=O)oc(c34)c5c67)O[C@H](C)[C@@H]3OC(c4ccc(Cl)cc4)O[C@@H]32)[C@@H]1O (stereo partly shown) [Compound No. 190],145,208,≥ 80,–,–,–
"CCCC(=O)Oc1c2cccc(OC3OC(C)C4OC(c5ccccc5)OC4C3OC3OC(C)C(O)C(OC)C3O)c2c2oc(=O)c3c(C)ccc4oc(=O)c1c2c43 (stereo not shown) [Compound No. 191, 6-O-(n-Butyryl)-3',4'-O-Benzylidene-Chartreusin]",–,–,≥ 40,155,–,–
"CCCCCC(=O)Oc1c2cccc(OC3OC(C)C4OC(c5ccccc5)OC4C3OC3OC(C)C(O)C(OC)C3O)c2c2oc(=O)c3c(C)ccc4oc(=O)c1c2c43 (stereo not shown) [Compound No. 196, 6-O-(n-Hexanoyl)-3',4'-O-Benzylidene-Chartreusin]",208,–,≥ 80,–,–,–
"COC1C(O)C(C)OC(OC2C(Oc3cccc4c(OC(C)=O)c5c(=O)oc6ccc(C)c7c(=O)oc(c34)c5c67)OC(C)C3OC(C)(C)OC32)C1O (stereo not shown) [Compound No. 203, 6-O-Acetyl-3',4'-O-Isopropylidene-Chartreusin]",–,–,≥ 60,–,180,–
"COC1C(O)C(C)OC(OC2C(Oc3cccc4c(OC(=O)C5CC=CCC5)c5c(=O)oc6ccc(C)c7c(=O)oc(c34)c5c67)OC(C)C3OC(C)(C)OC32)C1O (stereo not shown) [Compound No. 223, 6-O-(3-Cyclohexene-1-Carbonyl)-3',4'-O-Isopropylidene-Chartreusin]",–,–,≥ 60,–,172,–
"COC1C(O)C(C)OC(OC2C(Oc3cccc4c(OC(=O)CC(C)CC(C)(C)C)c5c(=O)oc6ccc(C)c7c(=O)oc(c34)c5c67)OC(C)C3OC(c4ccccc4)OC32)C1O (stereo not shown) [Compound No. 236, 6-O-(3,5,5-Trimethyl-n-Hexanoyl)-3',4'-O-Benzylidene-Chartreusin]",145,–,≥ 80,–,–,–
"COC1C(O)C(C)OC(OC2C(Oc3cccc4c(OC(=O)CCC5CCCCC5)c5c(=O)oc6ccc(C)c7c(=O)oc(c34)c5c67)OC(C)C3OC(C)(C)OC32)C1O (stereo not shown) [Compound No. 240, 6-O-(3-Cryclohexyl-Propionyl)-3',4'-O-Isopropylidene-Chartreusin]",–,–,≥ 60,–,158,–
COC1C(O)C(C)OC(OC2C(Oc3cccc4c(OC(=O)CCNC(=O)CN)c5c(=O)oc6ccc(C)c7c(=O)oc(c34)c5c67)OC(C)C3OC(c4ccccc4)OC32)C1O (stereo not shown) [compound 10],197,–,≥ 40,161,–,–
COC1C(O)C(C)OC(OC2C(Oc3cccc4c(OC(=O)CCN5CCOCC5)c5c(=O)oc6ccc(C)c7c(=O)oc(c34)c5c67)OC(C)C3OC(c4ccccc4)OC32)C1O (stereo not shown) [compound 32],–,–,≥ 40,186,–,146
"COC1C(O)C(C)OC(OC2C(Oc3cccc4c(OC(=O)CCNC(=O)CN)c5c(=O)oc6ccc(C)c7c(=O)oc(c34)c5c67)OC(C)C3OC(c4cccc(F)c4)OC32)C1O (stereo not drawn) [compound 33, 6-O-(glycyl-β-alanyl)-3',4'-O-(m-fluorobenzylidene)-chartreusin phosphate]",–,–,≥ 40,186,–,157
"COC1C(O)C(C)OC(OC2C(Oc3cccc4c(OC(=O)C(CN)C(C)C)c5c(=O)oc6ccc(C)c7c(=O)oc(c34)c5c67)OC(C)C3OC(c4ccccc4)OC32)C1O (stereo not drawn) [compound 35, 6-O-(α-isopropyl-β-alanyl)-3',4'-O-benzylidene-chartreusin phosphate]",173,–,≥ 40,–,–,–
"CO[C@H]1[C@@H](O)[C@@H](C)O[C@H](O[C@H]2[C@H](Oc3cccc4c(OC(=O)[C@@H](NC(=O)CNC(=O)CN)C(C)C)c5c(=O)oc6ccc(C)c7c(=O)oc(c34)c5c67)O[C@H](C)[C@@H]3OC(c4ccccc4)O[C@@H]32)[C@@H]1O (stereo partly shown) [compound 36, 6-O-(glycyl-glycyl-valyl)-3',4'-O-benzylidene-chartreusin phosphate]",–,–,≥ 40,157,–,135
"COC1C(O)C(C)OC(OC2C(Oc3cccc4c(OC(=O)CCN)c5c(=O)oc6ccc(C)c7c(=O)oc(c34)c5c67)OC(C)C3OC(C)(C)OC32)C1O (stereo not drawn) [compound 42, 6-O-(β-alanyl)-3',4'-O-isopropylidene-chartreusin hydrochloride]",–,187,≥ 100,–,–,–
COC1C(O)C(C)OC(OC2C(Oc3cccc4c(OC(=O)CCCCCN)c5c(=O)oc6ccc(C)c7c(=O)oc(c34)c5c67)OC(C)C3OC(C)(C)OC32)C1O (stereo not shown) [compound 59],146,218,≥ 100,–,–,–
COC1C(O)C(C)OC(OC2C(Oc3cccc4c(OC(=O)C(CNC(=O)OCc5ccccc5)C(C)C)c5c(=O)oc6ccc(C)c7c(=O)oc(c34)c5c67)OC(C)C3OC(c4ccccc4)OC32)C1O (stereo not shown) [compound 70],181,–,≥ 40,135,–,–
COC1C(O)C(C)OC(OC2C(Oc3cccc4c(OC(=O)CNC(=O)OCc5ccccc5)c5c(=O)oc6ccc(C)c7c(=O)oc(c34)c5c67)OC(C)C3OC(c4ccccc4)OC32)C1O (stereo not shown) [compound 71],–,–,≥ 40,157,–,–
COC1C(O)C(C)OC(OC2C(Oc3cccc4c(OC(=O)CCNC(=O)OCc5ccccc5)c5c(=O)oc6ccc(C)c7c(=O)oc(c34)c5c67)OC(C)C3OC(c4ccccc4)OC32)C1O (stereo not shown) [compound 72],–,–,≥ 40,167,–,–
COC1C(O)C(C)OC(OC2C(Oc3cccc4c(OC(=O)CCNC(=O)OCc5ccccc5)c5c(=O)oc6ccc(C)c7c(=O)oc(c34)c5c67)OC(C)C3OC(c4cccc(F)c4)OC32)C1O (stereo not shown) [compound 73],229,–,≥ 40,176,–,–
COC1C(O)C(C)OC(OC2C(Oc3cccc4c(OC(=O)C(C)CNC(=O)CNC(=O)OCc5ccccc5)c5c(=O)oc6ccc(C)c7c(=O)oc(c34)c5c67)OC(C)C3OC(c4ccccc4)OC32)C1O (stereo not shown) [compound 74],–,–,≥ 40,186,–,–
COC1C(O)C(C)OC(OC2C(Oc3cccc4c(OC(=O)CCNC(=O)CNC(=O)OCc5ccccc5)c5c(=O)oc6ccc(C)c7c(=O)oc(c34)c5c67)OC(C)C3OC(c4ccccc4)OC32)C1O (stereo not shown) [compound 75],197,–,≥ 40,153,–,–
COC1C(O)C(C)OC(OC2C(Oc3cccc4c(OC(=O)CCCNC(=O)OCc5ccccc5)c5c(=O)oc6ccc(C)c7c(=O)oc(c34)c5c67)OC(C)C3OC(c4ccccc4)OC32)C1O (stereo not shown) [compound 76],184,–,≥ 40,135,–,–
COC1C(O)C(C)OC(OC2C(Oc3cccc4c(OC(=O)CCCCCCCNC(=O)C(F)(F)F)c5c(=O)oc6ccc(C)c7c(=O)oc(c34)c5c67)OC(C)C3OC(c4ccccc4)OC32)C1O (stereo not shown) [compound 77],186,–,≥ 40,135,–,–
"COC1C(O)C(C)OC(OC2C(Oc3cccc4c(OC(=O)CCCCCNC(=O)C(F)(F)F)c5c(=O)oc6ccc(C)c7c(=O)oc(c34)c5c67)OC(C)C3OC(c4ccccc4)OC32)C1O (stereo not shown) [compound 78, 6-O-(N-trifluoroacetyl-6-amino-n-hexanoyl)-3',4'-O-benzylidene-chartreusin]",146,176,≥ 100,–,–,–
COC1C(O)C(C)OC(OC2C(Oc3cccc4c(OC(=O)CCNC=O)c5c(=O)oc6ccc(C)c7c(=O)oc(c34)c5c67)OC(C)C3OC(c4ccsc4)OC32)C1O (stereo not shown) [compound 81],173,–,≥ 40,139,–,–
COC1C(O)C(C)OC(OC2C(Oc3cccc4c(OC(=O)CN(C)C(=O)C(F)(F)F)c5c(=O)oc6ccc(C)c7c(=O)oc(c34)c5c67)OC(C)C3OC(c4ccccc4F)OC32)C1O (stereo not shown) [compound 82],148,205,≥ 80,–,–,–
COC1C(O)C(C)OC(OC2C(Oc3cccc4c(OC(=O)CCNC=O)c5c(=O)oc6ccc(C)c7c(=O)oc(c34)c5c67)OC(C)C3OC(CCc4ccccc4)OC32)C1O (stereo not shown) [compound 83],144,208,≥ 80,–,–,–
COC1C(O)C(C)OC(OC2C(Oc3cccc4c(OC(=O)CCNC=O)c5c(=O)oc6ccc(C)c7c(=O)oc(c34)c5c67)OC(C)C3OC(c4ccco4)OC32)C1O (stereo not shown) [compound 84],145,208,≥ 80,–,–,–
